Reference: PubChem BioAssay AID1996
Converted amounts (≈) assume the structure as drawn.

Settings: buffer; pH 7.4; 200.0 µM
`CC(C)(CN1CCOCC1)NS(=O)(=O)c1ccccc1` showed a solubility kinetic of 38 µg/mL (≈ 127 µM). In the case of `Cc1ccc(NC(=O)C2CCCCC2C(=O)O)cc1Cl` (stereo unspecified), the solubility kinetic is reported as > 44.4 µg/mL. With `O=C1C(=O)N(CCCc2ccccc2)c2ccccc21` the solubility kinetic was 32.5 µg/mL (≈ 122 µM). Work on `CC1CN=C(N(C(=O)Nc2ccccc2)C(C)c2ccccc2)S1` (stereo unspecified) yielded a solubility kinetic of 27 µg/mL (≈ 79.5 µM). For `COc1ccc(CNC(=O)c2ccc[nH]2)cc1`, the solubility kinetic was > 34.5 µg/mL. In the case of `CCc1onc(C)c1C(=O)Nc1ccc2c(c1)OCO2`, the solubility kinetic is reported as > 41.1 µg/mL. With `COc1cccc(NC(=O)c2ccccc2Br)c1` the solubility kinetic was > 45.9 µg/mL. `Cc1cn(C2OC(CC(=O)Oc3ccccc3)C(O)C2O)c(=O)[nH]c1=O` (stereo unspecified) showed a solubility kinetic of 48.5 µg/mL (≈ 134 µM). In the case of `COc1ccccc1NS(=O)(=O)c1ccc2oc(=S)[nH]c2c1`, the solubility kinetic is reported as > 50.5 µg/mL. With `Cc1ccccc1NC(=O)COC(=O)CC1CCCC1` the solubility kinetic was > 41.3 µg/mL. Work on `O=C(NC(=S)Nc1cccc([N+](=O)[O-])c1)c1ccccc1` yielded a solubility kinetic of 1.2 µg/mL (≈ 3.98 µM). Work on `COC(=O)c1c(NC(C)=O)sc(C)c1C` yielded a solubility kinetic of 31 µg/mL (≈ 136 µM). For `Cc1ccc(C(=O)NCCCNC(=O)COc2ccccc2Cl)cn1`, the solubility kinetic was > 54.3 µg/mL. With `CCN(C(=O)CSc1nccc(=O)[nH]1)c1cccc2ccccc12` the solubility kinetic was > 50.9 µg/mL. Compound `O=S(=O)(c1ccc(Br)cc1)N1CCCc2ccccc21` has a solubility kinetic of 1.6 µg/mL (≈ 4.54 µM). Compound `COc1ccccc1NC(=S)NCc1ccc(F)cc1` has a solubility kinetic of 34 µg/mL (≈ 117 µM). In the case of `CC(=O)c1cn(C)c(=O)c2ccccc12`, the solubility kinetic is reported as > 30.2 µg/mL. With `CC1N=C(c2ccccc2)c2cc(Br)ccc2NC1=O` (stereo unspecified) the solubility kinetic was > 49.4 µg/mL. With `Cc1cc(NC(=O)COc2ccccc2)ccc1Cl` the solubility kinetic was 1.9 µg/mL (≈ 6.89 µM). Compound `Cc1nc(Cl)c(C(=O)NCc2ccccc2)c(C)c1[N+](=O)[O-]` has a solubility kinetic of 10.8 µg/mL (≈ 33.8 µM). In the case of `COc1ccc(C)cc1NC(=O)CC(NC(C)=O)c1ccccc1` (stereo unspecified), the solubility kinetic is reported as > 49 µg/mL. With `Cc1ccccc1-n1c(=O)n(Cc2ccccc2)c(=O)c2[nH]cnc21` the solubility kinetic was > 49.9 µg/mL. With `Cc1ccc(NC(=O)CN2C(=S)NC(C)(C)CC2C)cc1Cl` (stereo unspecified) the solubility kinetic was 8.2 µg/mL (≈ 24.1 µM). `Cc1ccc(C2(c3noc(CN4CCOCC4)n3)CCCC2)cc1` showed a solubility kinetic of 41.3 µg/mL (≈ 126 µM). With `COc1ccc(NC(=O)Nc2ccc3c(c2)CCC3)c(OC)c1` the solubility kinetic was < 0.3 µg/mL. For `N#Cc1cc2c(nc1S(=O)(=O)Cc1ccccc1)CCCC2`, the solubility kinetic was 30.7 µg/mL (≈ 98.3 µM). For `Cc1ccc(C(=O)O/N=C(\N)c2ccc(C(F)(F)F)cn2)cc1`, the solubility kinetic was < 0.2 µg/mL. For `Cc1cc(Cl)ccc1NC(=S)NCC(O)c1ccccc1` (stereo unspecified), the solubility kinetic was > 48.1 µg/mL. `Cc1oc(C(C)(C)C)cc1C(=O)Nc1ccc(N2CCOCC2)cc1` showed a solubility kinetic of 4.3 µg/mL (≈ 12.6 µM). `O=C(NC(=S)Nc1ccccc1Br)C1CCC1` showed a solubility kinetic of 7.8 µg/mL (≈ 24.9 µM). Compound `CC1CN(C(=O)CCS(=O)(=O)c2ccccc2)CC(C)O1` (stereo unspecified) has a solubility kinetic of 43.2 µg/mL (≈ 139 µM). `Cc1cccc(OCCn2cnc(Cl)c2Cl)c1` gave a solubility kinetic of 27.7 µg/mL (≈ 102 µM). With `CC(Nc1ccc2c(c1)OCCO2)C(=O)Nc1ccc2c(c1)OCO2` (stereo unspecified) the solubility kinetic was > 51.4 µg/mL. For `CS(=O)(=O)N1CCCC(C(=O)Nc2ccc(F)cc2)C1` (stereo unspecified), the solubility kinetic was > 45.1 µg/mL. Work on `Cn1cccc2[nH]c(=O)nc1-2` yielded a solubility kinetic of 15.5 µg/mL (≈ 104 µM). With `COc1ccccc1CNS(=O)(=O)c1ccc(Br)s1` the solubility kinetic was 32.4 µg/mL (≈ 89.4 µM). `O=C(Nc1ccccc1Br)C1CCN(S(=O)(=O)c2cccs2)CC1` showed a solubility kinetic of 7.8 µg/mL (≈ 18.2 µM). In the case of `COC(=O)c1c(NC(C)=O)csc1C`, the solubility kinetic is reported as 29.2 µg/mL (≈ 137 µM). For `CC(C)Cn1cnc2c1c(=O)n(C)c(=O)n2C`, the solubility kinetic was > 35.4 µg/mL. For `CNc1cc(=O)n(C)c(=O)n1-c1ccccc1`, the solubility kinetic was > 34.7 µg/mL. For `COc1cc(C(=O)Nc2ccc3c(c2)ncn3C)cc(OC)c1OC`, the solubility kinetic was > 51.2 µg/mL. Compound `O=C(O)C1CC(c2ccccc2)=Nc2ccccc2S1` (stereo unspecified) has a solubility kinetic of 9.8 µg/mL (≈ 34.6 µM). `O=C(CCNC(=O)c1ccc(Cl)cc1)Nc1ncccc1O` showed a solubility kinetic of 45 µg/mL (≈ 141 µM). In the case of `COc1cc(CC(=O)OCC(=O)Nc2ccc(N(C)C)cc2)cc(OC)c1OC`, the solubility kinetic is reported as > 60.4 µg/mL. With `CC(C)(C)c1ccc(C(=O)NCCCNC(=O)c2ccccn2)cc1` the solubility kinetic was > 50.9 µg/mL. With `CCCN(CC(=O)Nc1ccccc1OC)C(=O)c1ccccn1` the solubility kinetic was > 49.1 µg/mL. With `CCOc1ccc(N2CC(C(=O)N3CCCC3)CC2=O)cc1` (stereo unspecified) the solubility kinetic was > 45.4 µg/mL. Compound `CC(=O)c1ccc(NC(=O)COC(=O)/C=C/c2cccs2)cc1` has a solubility kinetic of 7.3 µg/mL (≈ 22.2 µM). Compound `O=[N+]([O-])c1ccc(Cl)cc1NCC1CCCO1` (stereo unspecified) has a solubility kinetic of 28 µg/mL (≈ 109 µM). In the case of `O=C(Nc1nc2cc3c(cc2s1)OCO3)C1CC1`, the solubility kinetic is reported as < 0.3 µg/mL. For `CC(C)(C)CC(=O)Nc1ccc(S(=O)(=O)N2CCCC2)cc1`, the solubility kinetic was > 48.7 µg/mL. For `O=C(NC1CCCC1)c1cc(-c2ccccc2O)on1`, the solubility kinetic was 2.2 µg/mL (≈ 8.08 µM). With `Cn1cccc1C(=O)OCC(=O)NCc1cccs1` the solubility kinetic was > 41.7 µg/mL. With `Cc1noc(N)c1C1(O)C(=O)Nc2c(Cl)cc(Cl)cc21` (stereo unspecified) the solubility kinetic was > 47.1 µg/mL. In the case of `CCOC(=O)c1c(C)n(Cc2ccccc2)c2ccc(O)cc12`, the solubility kinetic is reported as < 0.7 µg/mL. In the case of `CC(C)c1onc(C(=O)Nc2ccc3c(c2)OCO3)c1[N+](=O)[O-]`, the solubility kinetic is reported as > 47.9 µg/mL. For `O=C(NCc1ccc2c(c1)OCO2)C1CCC(=O)N1C1CCCC1` (stereo unspecified), the solubility kinetic was > 49.6 µg/mL. In the case of `CC(=O)NCCc1ccc(C(=O)COC(=O)c2cccn2C)cc1`, the solubility kinetic is reported as > 49.3 µg/mL. For `COc1ccc(Oc2nc(-c3ccccn3)nc3ccccc23)cc1`, the solubility kinetic was 17.6 µg/mL (≈ 53.4 µM). With `COc1ccc(NC(=O)Nc2cccs2)cn1` the solubility kinetic was > 37.4 µg/mL. Work on `Fc1ccc(C2CCCN2Cc2nc(Cc3ccccc3F)no2)cc1` (stereo unspecified) yielded a solubility kinetic of 11.6 µg/mL (≈ 32.6 µM). `CCCCc1ccc(NC(=O)NCc2cccnc2)cc1` showed a solubility kinetic of 21.1 µg/mL (≈ 74.5 µM). In the case of `COc1ccc(C(=O)O)cc1NCc1ccc(C)s1`, the solubility kinetic is reported as > 41.6 µg/mL. For `COc1ccc(NC(=O)CCCC2CCCCC2)c(OC)c1`, the solubility kinetic was < 0.7 µg/mL. For `COc1ccc(-n2c(C)c(C)c3c(NCCN(C)C)ncnc32)cc1`, the solubility kinetic was > 50.9 µg/mL. `COc1ccc(CCOC(=O)c2ccc(N)c([N+](=O)[O-])c2)cc1` showed a solubility kinetic of 1.1 µg/mL (≈ 3.48 µM). In the case of `COCCNC(=O)COC(=O)c1cccnc1SC`, the solubility kinetic is reported as > 42.6 µg/mL. Work on `O=C(COC(=O)C1CC2CCCC(C1)C2=O)Nc1ccccc1` (stereo unspecified) yielded a solubility kinetic of 46.5 µg/mL (≈ 147 µM). For `Clc1ccc(-c2ncc3ccccn23)c(Cl)c1`, the solubility kinetic was 22.5 µg/mL (≈ 85.5 µM). With `COc1ccc(-n2c(CN3CCOCC3)nc3ccccc3c2=O)c(OC)c1` the solubility kinetic was > 57.2 µg/mL. With `COc1cc(C(=O)N[C@H](C(=O)NC2CCCc3ccccc32)C(C)C)cc(OC)c1OC` (stereo partly specified) the solubility kinetic was 4.9 µg/mL (≈ 11.1 µM). `CN(c1ccc(C(=O)Nc2ccc(CC#N)cc2)cc1)S(C)(=O)=O` gave a solubility kinetic of 4.2 µg/mL (≈ 12.2 µM). In the case of `Nc1cc(N)cc(C(=O)Nc2ccc3c(c2)C(=O)NC3=O)c1`, the solubility kinetic is reported as > 44.4 µg/mL. Work on `Cn1c(=O)c2ccccc2n(CC(=O)Nc2ccc3c(c2)OCCO3)c1=O` yielded a solubility kinetic of 4.6 µg/mL (≈ 12.5 µM). With `Cc1ccc(C(=O)O/N=C(\c2ccccc2)c2ccncc2)cc1` the solubility kinetic was 0.6 µg/mL (≈ 1.9 µM). Work on `Cc1cc(N2CCCCC2C)nc(-c2ccccc2O)n1` (stereo unspecified) yielded a solubility kinetic of 0.5 µg/mL (≈ 1.76 µM). Work on `Cc1ccc2c(C(=O)CN3CCN(C(=O)c4ccco4)CC3)c(C)[nH]c2c1` yielded a solubility kinetic of 14.6 µg/mL (≈ 40 µM). Work on `O=C(COC(=O)c1ccc(S(=O)(=O)N2CCOCC2)cc1)Nc1ccccc1OC(F)F` yielded a solubility kinetic of 4.8 µg/mL (≈ 10.2 µM). With `Cc1ccc(S(=O)(=O)n2c(C)nc3cc(C)ccc32)cc1` the solubility kinetic was 32 µg/mL (≈ 107 µM). In the case of `O=c1c(Cc2ccc(F)cc2)c(O)ccn1CCCn1ccnc1`, the solubility kinetic is reported as > 49.1 µg/mL. In the case of `COc1cc(C(=O)N2c3ccccc3CCC2C)cc(OC)c1OC` (stereo unspecified), the solubility kinetic is reported as 32.8 µg/mL (≈ 96.1 µM). For `Cc1cc(C(=O)OCC(=O)N2CCC(C)CC2)c2ccccc2n1`, the solubility kinetic was > 49 µg/mL. With `N=c1oc2cc(O)ccc2cc1C(=O)Nc1ccc(F)cc1` the solubility kinetic was 1.5 µg/mL (≈ 5.03 µM). In the case of `O=C1c2ccccc2NC(c2ccc(O)cc2)N1c1ccccc1` (stereo unspecified), the solubility kinetic is reported as 9.5 µg/mL (≈ 30 µM). For `O=C(Nc1ccc(F)cc1)c1nc[nH]c1C(=O)O`, the solubility kinetic was > 37.4 µg/mL. `NC(=O)COC(=O)C1c2ccccc2Oc2ccccc21` gave a solubility kinetic of 41.9 µg/mL (≈ 148 µM).
